Experimental findings from US20220324835A1 (Nurix Therapeutics, Inc., priority 2018, published 2022) are described below.

Assay [1] addresses T1, Cbl-b (Homo sapiens, UniProt Q13191). Put plainly: Cbl-b inhibition assay (Cbl-b activity assay, FRET, Biological Example 1; 100 mM NaCl, 60 nM Src kinase). In kind it is biochemical. To be noted: upper bound stated in text lists; read-out: IC50 values in the Cbl-b inhibition assay of Biological Example 1. The gist of the method: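 FRET read-out: loss of signal marks inhibition. Mix = biotin-Avi-Cbl-b (N-term), Src kinase, UbcH5B-Ub(Bodipy-FL, irreversible conjugate), streptavidin-Tb, assay buffer.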

In assay [2] the test system is T-cell. Put plainly: IL-2 secretion from T-cells co-stimulated with anti-CD3 and anti-CD28 antibody (Biological Example 2). Particulars: Homo sapiens, T-cell, fold change over baseline (anti-CD3/anti-CD28 stimulated T-cells without inhibitor), read-out: IL-2 secretion Anti-CD3/Anti-CD28 stimulation; for fold induction at 0.3 µM: 0.3 μM Cbl-b inhibitor; for fold induction at 1 µM: 1 μM Cbl-b inhibitor. The class given is cell-based, human. A digest of the protocol: (§1)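 No assay protocol given; T-cells stimulated with anti-CD3 alone or anti-CD3 plus anti-CD28, with or without Cbl-b inhibitor. Activation read as IL-2 secretion or CD25 surface staining, expressed as fold over baseline from uninhibited cells […].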

Assay [3] has as its system T-cell. Briefly: IL-2 secretion from T-cells stimulated with anti-CD3 antibody alone (Biological Example 2). The class given is cell-based, human. Particulars: Homo sapiens, T-cell; 1 μM Cbl-b inhibitor; fold change over baseline (anti-CD3/anti-CD28 stimulated T-cells without inhibitor); read-out: IL-2 secretion Anti-CD3 stimulation.
Assay [4] relates to T-cell. Briefly: CD25 cell surface staining on T-cells co-stimulated with anti-CD3 and anti-CD28 antibody (Biological Example 2). In kind it is cell-based, human. Particulars: Homo sapiens, T-cell, fold change over baseline (anti-CD3/anti-CD28 stimulated T-cells without inhibitor), read-out: CD25 staining Anti-CD3/Anti-CD28 stimulation; for fold induction at 0.3 µM: 0.3 μM Cbl-b inhibitor; for fold induction at 1 µM: 1 μM Cbl-b inhibitor. A digest of the protocol:
as §1

The test system of assay [5] is T-cell. Briefly: CD25 cell surface staining on T-cells stimulated with anti-CD3 antibody alone (Biological Example 2). In kind it is cell-based, human. Particulars: Homo sapiens, T-cell; 1 μM Cbl-b inhibitor; fold change over baseline (anti-CD3/anti-CD28 stimulated T-cells without inhibitor); read-out: CD25 staining Anti-CD3 stimulation.
Assay [6] has as its target T1, Cbl-b. Briefly: Cbl-b activity assay (Cbl-b inhibition assay), TR-FRET of Cbl-b interaction with UbcH5B-Ub. In kind it is biochemical. Particulars: assay buffer with 100 mM NaCl, 60 nM Src kinase; read-out: Cbl-b activity IC50. The gist of the method:
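TR-FRET readout of Cbl-b binding to Bodipy-fluorescein N-terminally labeled Ub conjugated to UbcH5B C85K, measured with compound present. After compound incubation, 60 nM Src kinase with 1 mM ATP and 5 mM MgCl2 (final) was added for 1.5 h, then a further 1 h incubation; asterisked values used 50 mM NaCl buffer and 30 nM Src.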

Some results are limits rather than exact numbers.

T1 sequence (Q13191 36-427): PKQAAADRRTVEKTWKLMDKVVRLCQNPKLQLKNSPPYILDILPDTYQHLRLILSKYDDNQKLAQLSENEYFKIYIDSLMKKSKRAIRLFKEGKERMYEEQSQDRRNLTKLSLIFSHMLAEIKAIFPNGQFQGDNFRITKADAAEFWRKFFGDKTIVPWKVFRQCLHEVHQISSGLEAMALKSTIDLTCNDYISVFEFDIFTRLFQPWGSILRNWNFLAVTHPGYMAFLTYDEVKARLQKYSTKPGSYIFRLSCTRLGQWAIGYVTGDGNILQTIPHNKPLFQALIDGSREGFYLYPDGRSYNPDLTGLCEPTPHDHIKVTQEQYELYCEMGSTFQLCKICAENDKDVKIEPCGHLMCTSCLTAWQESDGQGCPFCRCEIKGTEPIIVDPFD

Take `Cn1cnnc1CC1(c2cccc(N3Cc4c(cc(CN5CCCCC(F)C5)cc4C(F)(F)F)C3=O)c2)COC1` (stereo not drawn) [Example 627, 6-((3-fluoroazepan-1-yl)methyl)-2-(3-(3-((4-methyl-4H-1,2,4-triazol-3-yl)methyl)oxetan-3-yl)phenyl)-4-(trifluoromethyl)isoindolin-1-one]: the 50% inhibitory concentration (IC50) in assay [1] is at most 100 nM; in assay [6] it was under 100 nM. In addition, the figures for the fold induction at 0.3 µM in assay [2] and in assay [4] were 5 to 7.5 and 1.31 to 1.5, respectively. Moreover, the fold induction at 1 µM was over 7.5 in assay [2], over 0.201 in assay [3], 1.31 to 1.5 in assay [4] and over 1 in assay [5].

On to `Cn1cnnc1CC1(c2cccc(N3Cc4c(cc(CN5CCC(C#N)CC5)cc4C(F)(F)F)C3=O)c2)COC1` [Example 628, 1-((2-(3-(3-((4-methyl-4H-1,2,4-triazol-3-yl)methyl)oxetan-3-yl)phenyl)-3-oxo-7-(trifluoromethyl)isoindolin-5-yl)methyl)piperidine-4-carbonitrile], for which the IC50 in assay [1] is at most 100 nM; in assay [6], under 100 nM. The results for the fold induction at 0.3 µM in assay [2] and in assay [4] were 5 to 7.5 and 1.31 to 1.5, respectively. Also, the fold induction at 1 µM is over 7.5 in assay [2], over 0.201 in assay [3], 1.31 to 1.5 in assay [4] and over 1 in assay [5].

Take `CCOC1CCCN(Cc2cc3c(c(C(F)(F)F)c2)CN(c2cccc(C4(Cc5nncn5C)COC4)c2)C3=O)C1` (stereo not drawn) [Example 629, 6-((3-ethoxypiperidin-1-yl)methyl)-2-(3-(3-((4-methyl-4H-1,2,4-triazol-3-yl)methyl)oxetan-3-yl)phenyl)-4-(trifluoromethyl)isoindolin-1-one]: the half-maximal inhibitory concentration (IC50) in assay [1] was at most 100 nM; in assay [6], under 100 nM. Also, the fold induction at 0.3 µM was over 7.5 in assay [2] and 1.51 to 1.75 in assay [4]. The fold induction at 1 µM in assay [2] is over 7.5; in assay [3], over 0.201; in assay [4] it was 1.51 to 1.75; in assay [5], over 1.

On to `COC1CCN(Cc2cc3c(c(C(F)(F)F)c2)CN(c2cccc(C4(Cc5nncn5C)COC4)c2)C3=O)CC1` [Example 632, 6-((4-methoxypiperidin-1-yl)methyl)-2-(3-(3-((4-methyl-4H-1,2,4-triazol-3-yl)methyl)oxetan-3-yl)phenyl)-4-(trifluoromethyl)isoindolin-1-one], for which the IC50 in assay [1] was at most 100 nM; in assay [6], under 100 nM. In addition, the values for the fold induction at 0.3 µM in assay [2] and in assay [4] were over 7.5 and 1.31 to 1.5, respectively. The fold induction at 1 µM in assay [2] is over 7.5; in assay [3], over 0.201; in assay [4], 1.51 to 1.75; in assay [5] it was over 1.

With `Cn1cnnc1CC1(c2cccc(N3Cc4c(cc(CN5CCC(F)(F)CC5)cc4C(F)(F)F)C3=O)c2)COC1` [Example 633, 6-((4,4-difluoropiperidin-1-yl)methyl)-2-(3-(3-((4-methyl-4H-1,2,4-triazol-3-yl)methyl)oxetan-3-yl)phenyl)-4-(trifluoromethyl)isoindolin-1-one], the half-inhibitory concentration (IC50) in assay [1] was at most 100 nM; in assay [6], under 100 nM. For the same molecule, the fold induction at 0.3 µM in assay [2] is over 7.5; in assay [4], 1.31 to 1.5. The fold induction at 1 µM in assay [2] is over 7.5; in assay [3], over 0.201; in assay [4] it was 1.31 to 1.5; in assay [5], over 1.

Turning to `CC1CCN(Cc2cc3c(c(C(F)(F)F)c2)CN(c2cccc(C4(Cc5nncn5C)COC4)c2)C3=O)CC1(F)F` (stereo not drawn) [Example 635, 6-((3,3-difluoro-4-methylpiperidin-1-yl)methyl)-2-(3-(3-((4-methyl-4H-1,2,4-triazol-3-yl)methyl)oxetan-3-yl)phenyl)-4-(trifluoromethyl)isoindolin-1-one], the IC50 in assay [1] is at most 100 nM; in assay [6] it was under 100 nM. The fold induction at 0.3 µM is over 7.5 in assay [2] and 1.31 to 1.5 in assay [4]. In addition, the fold induction at 1 µM in assay [2] was over 7.5; in assay [3], over 0.201; in assay [4], 1.31 to 1.5; in assay [5], over 1.

As for `Cn1cnnc1CC1(c2cccc(N3Cc4c(cc(CN5CCC6(CC6)C(F)(F)C5)cc4C(F)(F)F)C3=O)c2)COC1` [Example 636, 6-((4,4-difluoro-6-azaspiro[2.5]octan-6-yl)methyl)-2-(3-(3-((4-methyl-4H-1,2,4-triazol-3-yl)methyl)oxetan-3-yl)phenyl)-4-(trifluoromethyl)isoindolin-1-one], the results for the IC50 in assay [1] and in assay [6] were at most 100 nM and under 100 nM, respectively. The figures for the fold induction at 0.3 µM in assay [2] and in assay [4] were 2.51 to 5 and 1.31 to 1.5, respectively. The fold induction at 1 µM is over 7.5 in assay [2], over 0.201 in assay [3], 1.31 to 1.5 in assay [4] and over 1 in assay [5].

`COC1CCCN(Cc2cc3c(c(C(F)(F)F)c2)CN(c2cccc(C4(Cc5nncn5C)COC4)c2)C3=O)C1` (stereo not drawn) [Example 637, 6-((3-methoxypiperidin-1-yl)methyl)-2-(3-(3-((4-methyl-4H-1,2,4-triazol-3-yl)methyl)oxetan-3-yl)phenyl)-4-(trifluoromethyl)isoindolin-1-one]: the IC50 in assay [1] was at most 100 nM; in assay [6], under 100 nM. Moreover, the fold induction at 0.3 µM is over 7.5 in assay [2] and 1.31 to 1.5 in assay [4]. Moreover, the fold induction at 1 µM in assay [2] is over 7.5; in assay [3] it was over 0.201; in assay [4], 1.51 to 1.75; in assay [5], over 1.

On to `Cn1cnnc1CC1(c2cccc(N3Cc4c(cc(CN5CCC6(CC5)CC6)cc4C(F)(F)F)C3=O)c2)COC1` [Example 641, 6-((6-azaspiro[2.5]octan-6-yl)methyl)-2-(3-(3-((4-methyl-4H-1,2,4-triazol-3-yl)methyl)oxetan-3-yl)phenyl)-4-(trifluoromethyl)isoindolin-1-one], for which the IC50 is at most 100 nM in assay [1] and under 100 nM in assay [6]. The fold induction at 0.3 µM was over 7.5 in assay [2] and 1.51 to 1.75 in assay [4]. Moreover, the fold induction at 1 µM is over 7.5 in assay [2], over 0.201 in assay [3], 1.51 to 1.75 in assay [4] and over 1 in assay [5].

In the case of `Cn1cnnc1CC1(c2cccc(N3Cc4c(cc(CN5CCC(C)(C#N)CC5)cc4C(F)(F)F)C3=O)c2)COC1` [Example 642, 4-methyl-1-((2-(3-(3-((4-methyl-4H-1,2,4-triazol-3-yl)methyl)oxetan-3-yl)phenyl)-3-oxo-7-(trifluoromethyl)isoindolin-5-yl)methyl)piperidine-4-carbonitrile], the IC50 in assay [1] was at most 100 nM; in assay [6], under 100 nM. The values for the fold induction at 0.3 µM in assay [2] and in assay [4] were over 7.5 and 1.31 to 1.5, respectively. Further, the fold induction at 1 µM in assay [2] was over 7.5; in assay [3] it was 0.151 to 0.2; in assay [4], 1.31 to 1.5; in assay [5], over 1.

For `Cn1cnnc1CC1(c2cccc(N3Cc4c(cc(CN5CCC(C(F)F)CC5)cc4C(F)(F)F)C3=O)c2)COC1` [Example 643, 6-((4-(difluoromethyl)piperidin-1-yl)methyl)-2-(3-(3-((4-methyl-4H-1,2,4-triazol-3-yl)methyl)oxetan-3-yl)phenyl)-4-(trifluoromethyl)isoindolin-1-one], the IC50 in assay [1] was at most 100 nM; in assay [6], under 100 nM. In addition, the fold induction at 0.3 µM fell in the range of 5 to 7.5 in assay [2] and 1.31 to 1.5 in assay [4]. Further, the fold induction at 1 µM was over 7.5 in assay [2], 0.151 to 0.2 in assay [3], 1.31 to 1.5 in assay [4] and over 1 in assay [5].

On to `Cn1cnnc1CC1(c2cccc(N3Cc4c(cc(CN5CCC6CC6C5)cc4C(F)(F)F)C3=O)c2)COC1` (stereo not drawn) [Example 646, 6-((3-azabicyclo[4.1.0]heptan-3-yl)methyl)-2-(3-(3-((4-methyl-4H-1,2,4-triazol-3-yl)methyl)oxetan-3-yl)phenyl)-4-(trifluoromethyl)isoindolin-1-one], for which the concentration for half-maximal inhibition (IC50) in assay [1] was at most 100 nM; in assay [6], under 100 nM. Moreover, the fold induction at 0.3 µM was over 7.5 in assay [2] and 1.31 to 1.5 in assay [4]. Also, the fold induction at 1 µM in assay [2] is over 7.5; in assay [3], over 0.201; in assay [4] it was 1.31 to 1.5; in assay [5], over 1.
